Data: patent US10017527B2, “KLK4 inhibitors” (Universiteit Antwerpen, priority 2014, dated 2018)
Read-outs that look alike come from different tables or passages of the source.

Columns and labels:
Assay type in all cases: biochemical
[1] = target: T1, KLK1 (human) (Homo sapiens, UniProt P06870); test: KLK1 inhibition, fluorogenic substrate H-Pro-Phe-Arg-AMC
T1 construct: purchased Prospec
Description: (§1) The IC50 values For KLK1, KLK2 and KLK8 were obtained in a similar way. For plasmin, tPA, thrombin, Fxa, HNE, Plasma kallikrein Chromogenic substrates were used (absorption: 405 nm). (KLK2, KLK4, KLK8 were supplied by Viktor Magdolen TUMunich (TUM)).

[2] = target: T2, KLK4 (Homo sapiens, UniProt Q9Y5K2); test: KLK4 enzymatic inhibition, fluorogenic substrate Boc-Val-Pro-Arg-AMC
T2 construct: purchased Viktor Magdolen (TUM), supplied by an academic laboratory
T2 sequence (Q9Y5K2 31-254): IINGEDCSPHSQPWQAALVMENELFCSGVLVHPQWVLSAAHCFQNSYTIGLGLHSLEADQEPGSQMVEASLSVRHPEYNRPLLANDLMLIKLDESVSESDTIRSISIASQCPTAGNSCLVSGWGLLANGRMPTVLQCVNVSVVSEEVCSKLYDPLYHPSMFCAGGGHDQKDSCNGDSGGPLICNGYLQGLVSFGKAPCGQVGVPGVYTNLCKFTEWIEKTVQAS
Method: The substrate was obtained form Bachem and the enzyme was provided by Viktor Magdolen (TUM). The reaction was monitored with an excitation wavelength of 355 nm and emission wavelength of 460 nm. The initial rate was determined between 2500000 and 4500000 mRFU/min. The reaction mixture contained 25 μM substrate and approximately 1 mU of enzyme in 145 μL of buffer in a final volume of […]. A 50 mM Tris buffer, pH 8.3, was used. From each inhibitor concentration, 5 μL was added, obtaining a final concentration from 0 to 250 μM in a total volume of 0.2 mL. Activity measurements were routinely performed in duplicate. […] IC50 values were obtained by fitting the data with the four-parameter logistics equation using Grafit 7.
[formula] where s=slope factor, v=rate, I0=inhibitor concentration, and range=the fitted uninhibited value minus the background. The equation assumes they falls with increasing x.
(§2) Inhibitor stock solutions were prepared in DMSO and stored at −20° C. Because the compounds described in this paper completely inactivate KLK4 following pseudo first-order kinetics, the IC50 value is inversely correlated with the second-order rate constant of inactivation. For a simple pseudo first-order inactivation process, the activity after incubation with inhibitor (vi) varies with the inhibitor concentration (i), as described in the following equation: vi=v0×e^−k t, where vo is the activity in absence of inhibitor, k is the second-order rate constant of inactivation, and t is the time. The inactivation rate constant was determined from the time course of inhibition.

[3] = target: T3, Matriptase (Homo sapiens, UniProt Q9Y5Y6); test: Matriptase inhibition
T3 sequence (Q9Y5Y6 1-855): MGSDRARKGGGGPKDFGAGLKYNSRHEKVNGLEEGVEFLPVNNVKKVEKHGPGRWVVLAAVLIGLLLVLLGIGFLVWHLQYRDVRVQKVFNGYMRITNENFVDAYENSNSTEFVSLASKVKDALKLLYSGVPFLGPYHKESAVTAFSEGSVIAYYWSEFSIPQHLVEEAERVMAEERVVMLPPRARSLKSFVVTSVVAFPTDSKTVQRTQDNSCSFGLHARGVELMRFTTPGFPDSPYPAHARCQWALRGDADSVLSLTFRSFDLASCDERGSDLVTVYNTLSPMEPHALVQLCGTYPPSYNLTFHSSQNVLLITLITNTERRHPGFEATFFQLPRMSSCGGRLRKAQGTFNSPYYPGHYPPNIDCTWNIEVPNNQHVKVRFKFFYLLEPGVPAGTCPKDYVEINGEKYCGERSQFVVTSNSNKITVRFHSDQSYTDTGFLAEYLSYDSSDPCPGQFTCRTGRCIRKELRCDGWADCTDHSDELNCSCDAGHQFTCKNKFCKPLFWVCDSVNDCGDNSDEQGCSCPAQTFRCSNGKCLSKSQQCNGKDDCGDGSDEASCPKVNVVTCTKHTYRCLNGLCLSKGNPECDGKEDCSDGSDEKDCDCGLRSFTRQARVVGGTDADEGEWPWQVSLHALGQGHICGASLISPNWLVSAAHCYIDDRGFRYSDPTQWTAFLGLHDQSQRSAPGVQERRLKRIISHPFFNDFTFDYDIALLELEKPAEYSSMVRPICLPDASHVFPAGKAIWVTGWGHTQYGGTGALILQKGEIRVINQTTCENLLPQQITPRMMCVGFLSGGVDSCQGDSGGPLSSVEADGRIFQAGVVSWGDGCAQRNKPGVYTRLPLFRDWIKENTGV

[4] = target: T4, Plasmine (human plasma) (Homo sapiens, UniProt P00747); test: Plasmin inhibition, chromogenic substrate Biophen CS-21(66)
T4 construct: purchased Sigma-Aldrich; host or cells: human plasma
T4 sequence (P00747 581-810 limits assumed): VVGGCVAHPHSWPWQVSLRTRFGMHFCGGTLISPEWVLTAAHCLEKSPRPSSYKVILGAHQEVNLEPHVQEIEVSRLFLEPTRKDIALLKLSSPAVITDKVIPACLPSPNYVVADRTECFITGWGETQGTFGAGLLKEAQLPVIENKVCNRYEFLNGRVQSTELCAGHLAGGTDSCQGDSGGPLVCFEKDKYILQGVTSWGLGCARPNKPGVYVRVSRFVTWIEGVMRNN
T4 sequence (P00747 98-580 partner limits assumed): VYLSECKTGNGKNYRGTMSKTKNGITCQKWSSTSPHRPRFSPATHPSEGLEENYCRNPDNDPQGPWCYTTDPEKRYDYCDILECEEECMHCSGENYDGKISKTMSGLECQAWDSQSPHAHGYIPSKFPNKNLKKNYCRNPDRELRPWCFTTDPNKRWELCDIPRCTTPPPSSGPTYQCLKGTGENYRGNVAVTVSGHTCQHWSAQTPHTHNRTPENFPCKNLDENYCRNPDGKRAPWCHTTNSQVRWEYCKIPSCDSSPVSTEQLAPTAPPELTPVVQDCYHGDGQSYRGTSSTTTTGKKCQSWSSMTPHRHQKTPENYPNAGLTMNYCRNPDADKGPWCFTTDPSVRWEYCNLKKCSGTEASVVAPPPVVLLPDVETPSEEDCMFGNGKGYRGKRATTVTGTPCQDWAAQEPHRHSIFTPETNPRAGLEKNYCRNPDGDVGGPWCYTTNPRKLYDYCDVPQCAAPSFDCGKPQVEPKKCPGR
Description: as §1

[5] = target: T5, uPA (recombinant) (Homo sapiens, UniProt P00749); test: uPA inhibition, chromogenic substrate Biophen CS-61(44)
T5 construct: purchased Nodia

[6] = target: T6, KLK2 (human) (Homo sapiens, UniProt P20151); test: KLK2 inhibition, fluorogenic substrate H-Pro-Phe-Arg-AMC
T6 construct: purchased Viktor Magdolen, TUMunich (TUM), supplied by an academic laboratory
T6 sequence (P20151 25-261): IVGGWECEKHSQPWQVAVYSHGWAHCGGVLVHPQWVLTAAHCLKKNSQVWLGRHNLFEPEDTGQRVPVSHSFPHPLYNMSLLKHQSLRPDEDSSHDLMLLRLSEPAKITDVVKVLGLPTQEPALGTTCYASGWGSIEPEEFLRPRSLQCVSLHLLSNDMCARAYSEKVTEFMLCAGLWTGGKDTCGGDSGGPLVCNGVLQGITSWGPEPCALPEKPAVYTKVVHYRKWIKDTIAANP
Description: as §1

[7] = target: T7, KLK8 (human) (Homo sapiens, UniProt O60259); test: KLK8 inhibition, fluorogenic substrate Boc-Val-Pro-Arg-AMC
T7 construct: purchased Viktor Magdolen, TUMunich (TUM), supplied by an academic laboratory
T7 sequence (O60259 33-260): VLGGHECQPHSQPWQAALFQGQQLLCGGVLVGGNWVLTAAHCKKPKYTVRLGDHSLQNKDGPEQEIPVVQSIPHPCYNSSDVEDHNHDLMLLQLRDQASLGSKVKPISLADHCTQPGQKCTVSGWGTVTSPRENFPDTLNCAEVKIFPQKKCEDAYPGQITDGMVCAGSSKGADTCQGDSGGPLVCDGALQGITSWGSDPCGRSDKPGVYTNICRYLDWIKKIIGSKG
Description: as §1

[8] = target: T2, KLK4; test: KLK4 inactivation kinetics from progress curves (kobs vs inhibitor concentration); details: for Irreversible (KLK4): irreversible binding to KLK4, Yes/No
Method: as §2
The inhibitor was mixed with the substrate (250 μM final concentration), and the buffer solution with the enzyme was added at the time zero. […] The progress curves show the absorbance of aminomethylcoumarine produced as a function of time. Initially, no inhibitor is bound to the enzyme, and the tangent to the progress curve (dA/dt) is proportional to the concentration of the free enzyme. The concentration of free enzyme decreases over time due to the kinetics of inhibitor binding, as described above. Progress curves were recorded in pseudo first-order conditions ([I]0>>[E]0) and with less than 10% conversion of the substrate during the entire time course. In these conditions, dA/dt decreases exponentially with time. The progress curves were fitted with the integrated rate equation to yield a value for kobs, a pseudofirst-order rate constant At=v0[1−e^−k^obs^t]/kobs+A0 where At=absorbance at time t, A0=absorbance at time zero, and v0=uninhibited initial rate.
The apparent second-order rate constant (kapp) was calculated from the slope of the linear part of the plot of kobs versus the inhibitor concentration ([I]0). In case of competition between the inhibitor and the substrate, kapp is smaller than the “real” second order rate constant k discussed above because a certain fraction of the enzyme is present as an enzyme-substrate complex. kapp depends on the substrate concentration used in the experiment, as described by Lambeir et al. (Lambeir, Borloo et al. 1996).

[9] = target: T8, tPA (recombinant) (Homo sapiens, UniProt P00750); test: tPA inhibition, chromogenic substrate Biophen CS-05(88); details: Tris buffer pH 8.3; read-out: IC50 tPA
T8 construct: purchased Nodia
T8 sequence (P00750 36-562, species assumed): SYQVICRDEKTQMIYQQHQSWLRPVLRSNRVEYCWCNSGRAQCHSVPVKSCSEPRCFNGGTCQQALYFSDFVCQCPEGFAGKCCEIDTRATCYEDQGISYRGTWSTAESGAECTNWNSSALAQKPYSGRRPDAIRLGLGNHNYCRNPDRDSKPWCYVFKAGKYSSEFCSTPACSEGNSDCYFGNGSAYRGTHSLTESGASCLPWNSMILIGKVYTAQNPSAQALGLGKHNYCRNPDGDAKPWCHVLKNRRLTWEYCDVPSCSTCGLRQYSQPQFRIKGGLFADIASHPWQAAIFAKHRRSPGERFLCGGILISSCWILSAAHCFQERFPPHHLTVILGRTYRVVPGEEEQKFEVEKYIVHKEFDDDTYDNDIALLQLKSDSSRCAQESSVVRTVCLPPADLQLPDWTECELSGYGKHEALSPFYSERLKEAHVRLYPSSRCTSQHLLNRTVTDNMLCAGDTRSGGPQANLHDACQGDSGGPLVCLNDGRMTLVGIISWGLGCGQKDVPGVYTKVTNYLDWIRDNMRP
Description: as §1

[10] = target: T9, PlasmaKLK (human plasma) (Homo sapiens, UniProt P03952); test: Plasma kallikrein inhibition, chromogenic substrate Biophen CS-31(02); details: Plasma KLK; Tris buffer pH 7.8; read-out: IC50 pKLK
T9 construct: purchased Sigma-Aldrich; host or cells: human plasma
T9 sequence (P03952 391-638 limits assumed): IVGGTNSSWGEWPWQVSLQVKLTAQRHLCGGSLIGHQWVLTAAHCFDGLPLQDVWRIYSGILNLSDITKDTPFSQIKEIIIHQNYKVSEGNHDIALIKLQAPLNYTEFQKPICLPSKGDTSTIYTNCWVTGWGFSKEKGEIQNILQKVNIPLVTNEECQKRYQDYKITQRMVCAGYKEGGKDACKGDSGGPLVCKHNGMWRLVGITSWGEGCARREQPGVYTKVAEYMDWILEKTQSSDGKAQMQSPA
T9 sequence (P03952 20-390 partner limits assumed): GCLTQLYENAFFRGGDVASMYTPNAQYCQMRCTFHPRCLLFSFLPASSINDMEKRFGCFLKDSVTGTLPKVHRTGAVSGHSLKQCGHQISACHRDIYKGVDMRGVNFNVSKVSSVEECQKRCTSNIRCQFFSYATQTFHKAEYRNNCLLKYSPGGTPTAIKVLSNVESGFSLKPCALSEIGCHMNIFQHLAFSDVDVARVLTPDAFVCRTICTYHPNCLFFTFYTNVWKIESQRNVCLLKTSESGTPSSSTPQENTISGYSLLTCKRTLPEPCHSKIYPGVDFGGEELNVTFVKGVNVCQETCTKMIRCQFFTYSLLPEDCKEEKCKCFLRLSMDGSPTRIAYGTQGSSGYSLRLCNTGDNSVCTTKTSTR
Description: as §1

[11] = target: T10, FXa (Homo sapiens, UniProt P00742); test: FXa inhibition, chromogenic substrate Biophen CS-11(32); details: Tris buffer pH 8.3; read-out: IC50 FXa
T10 construct: purchased Nodia
T10 sequence (P00742 235-488 limits assumed): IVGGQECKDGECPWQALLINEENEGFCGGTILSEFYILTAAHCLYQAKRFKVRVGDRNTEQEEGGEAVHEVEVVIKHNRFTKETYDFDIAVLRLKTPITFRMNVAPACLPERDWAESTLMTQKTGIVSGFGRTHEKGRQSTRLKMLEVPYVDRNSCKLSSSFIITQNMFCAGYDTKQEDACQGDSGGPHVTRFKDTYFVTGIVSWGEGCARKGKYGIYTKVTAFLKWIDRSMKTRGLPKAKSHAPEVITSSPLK
T10 sequence (P00742 41-179 partner limits assumed): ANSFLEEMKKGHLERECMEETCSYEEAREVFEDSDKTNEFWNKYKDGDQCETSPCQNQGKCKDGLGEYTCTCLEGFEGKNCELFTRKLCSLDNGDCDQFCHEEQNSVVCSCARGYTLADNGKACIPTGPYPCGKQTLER
Description: as §1

[12] = target: T11, Thrombine (human plasma) (Homo sapiens, UniProt P00734); test: Thrombin inhibition, chromogenic substrate Biophen CS-21(66)
T11 construct: purchased Sigma-Aldrich; host or cells: human plasma

[13] = 15 min pre-incubation at 37° C., Tris buffer pH 8.3, read-out: IC50 KLK4
[14] = Plasmin, Tris buffer pH 7.4, read-out: IC50 PLM
[15] = Tris buffer pH 8.8, read-out: IC50 uPA
[16] = Thrombin, Tris buffer pH 8.3, read-out: IC50 THR
[17] = Tris buffer pH 7.8, read-out: IC50 KLK1

T1 sequence (P06870 25-262): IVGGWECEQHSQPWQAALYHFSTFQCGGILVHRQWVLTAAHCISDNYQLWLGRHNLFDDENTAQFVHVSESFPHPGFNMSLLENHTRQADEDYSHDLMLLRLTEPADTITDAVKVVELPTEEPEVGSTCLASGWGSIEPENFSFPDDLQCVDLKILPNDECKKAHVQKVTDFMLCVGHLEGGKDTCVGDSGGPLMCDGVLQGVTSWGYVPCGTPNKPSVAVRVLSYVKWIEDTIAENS

Molecule	IC50 [1]	IC50 [2]	IC50 [3]	IC50 [4]	IC50 [5]	IC50 [6]	IC50 [7]	kapp KLK4 ([8]; apparent second-order rate constant, substrate 250 μM)	Irreversible (KLK4) [8]	IC50 [2, 13]	IC50 [4, 14]	IC50 [9]	IC50 [10]	IC50 [11]	IC50 [5, 15]	IC50 [12, 16]	IC50 [1, 17]	IC50 ([3]; Matriptase, read-out: IC50 MAT)	IC50 [12]
N=C(N)Nc1ccc(C(NC(=O)OCCCC(F)(F)F)P(=O)(Oc2ccccc2)Oc2ccccc2)cc1 (stereo not drawn) [Compound 107, 4,4,4-trifluorobutyl ((diphenoxyphosphoryl)(4-guanidinophenyl)methyl) carbamate]	2500 to 10000 nM	< 100 nM	2500 to 10000 nM	10 to 250 µM	2500 to 10000 nM	100 to 1000 nM	2500 to 10000 nM												
CSCCOC(=O)NC(c1ccc(NC(=N)N)cc1)P(=O)(Oc1ccccc1)Oc1ccccc1 (stereo not drawn) [Compound 108, 2-(methylthio)ethyl ((diphenoxyphosphoryl)(4-guanidinophenyl)methyl) carbamate]	1000 to 2500 nM	< 100 nM	2500 to 10000 nM	10 to 250 µM	2500 to 10000 nM	100 to 1000 nM	1000 to 2500 nM												
N=C(N)Nc1ccc(C(NC(=O)OCc2c(F)c(F)c(F)c(F)c2F)P(=O)(Oc2ccccc2)Oc2ccccc2)cc1 (stereo not drawn) [Compound 109, (perfluorophenyl)methyl ((diphenoxyphosphoryl)(4-guanidinophenyl)methyl) carbamate]	100 to 1000 nM	< 100 nM	1000 to 2500 nM	10 to 250 µM	2500 to 10000 nM	100 to 1000 nM	1000 to 2500 nM												
COCCOCCOCCOC(=O)NC(c1ccc(NC(=N)N)cc1)P(=O)(Oc1ccccc1)Oc1ccccc1 (stereo not drawn) [Compound 110, 2-(2-(2-methoxyethoxy)ethoxy)ethyl ((diphenoxyphosphoryl)(4-guanidinophenyl)methyl)carbamate]	2500 to 10000 nM	< 100 nM	2500 to 10000 nM	10 to 250 µM	2500 to 10000 nM		1000 to 2500 nM	19600 M⁻¹ s⁻¹	Yes/										
COCCOCCOC(=O)NC(c1ccc(NC(=N)N)cc1)P(=O)(Oc1ccc(NC(C)=O)cc1)Oc1ccc(NC(C)=O)cc1 (stereo not drawn) [Compound 114, 2-(2-methoxyethoxy)ethyl ((bis(4-acetamidophenoxy)phosphoryl)(4-guanidinophenyl)methyl) carbamate]	2500 to 10000 nM	< 100 nM	1000 to 2500 nM	10 to 250 µM	2500 to 10000 nM	100 to 1000 nM	1000 to 2500 nM												
N=C(N)Nc1ccc(C(NS(=O)(=O)c2ccccc2)P(=O)(Oc2ccccc2)Oc2ccccc2)cc1 (stereo not drawn) [Compound 127, diphenyl ((4-guanidinophenyl)(phenylsulfonamido)methyl)phosphonate]										2500 to 10000 nM	2.5 to 10 µM	2.5 to 10 µM	2.5 to 10 µM	2.5 to 10 µM	2500 to 10000 nM	2.5 to 10 µM			
N=C(N)Nc1ccc(C(NS(=O)(=O)c2ccc(C(F)(F)F)cc2)P(=O)(Oc2ccccc2)Oc2ccccc2)cc1 (stereo not drawn) [Compound 130]										< 100 nM									
N=C(N)Nc1ccc(C(NC(=O)OCCOCCOCc2cn(CCOCCOCCOCCNC(=O)CCCC[C@H]3SC[C@H]4NC(=O)N[C@H]43)nn2)P(=O)(Oc2ccccc2)Oc2ccccc2)cc1 (stereo partly drawn) [Compound 135, 2-(2-((1-(13-oxo-17-((3aR,4R,6aS)-2-oxohexahydro-1H-thieno[3,4-d]imidazol-4-yl)-3,6,9-trioxa-12-azaheptadecyl)-1H-1,2,3-triazol-4-yl)methoxy)ethoxy)ethyl ((diphenoxyphosphoryl)(4-guanidinophenyl)methyl)carbamate]										< 100 nM	10 to 250 µM		10 to 250 µM	10 to 250 µM	2500 to 10000 nM	10 to 250 µM	2500 to 10000 nM	2500 to 10000 nM	
C#CCOCCOCCOC(=O)NC(Cc1ccc(NC(=N)N)cc1)P(=O)(Oc1ccccc1)Oc1ccccc1 (stereo not drawn) [UPA2, reference compound]					< 100 nM				No		2.5 to 10 µM	> 250 µM	10 to 250 µM	> 250 µM				100 to 1000 nM	10 to 250 µM
diphenyl ((4-guanidinophenyl)(4-methoxyphenylsulfonamido)methyl)phosphonate [Compound 132]										100 to 1000 nM	2.5 to 10 µM	2.5 to 10 µM	2.5 to 10 µM	2.5 to 10 µM	2500 to 10000 nM	2.5 to 10 µM	2500 to 10000 nM		
diphenyl ((4-guanidinophenyl)(phenylsulfonamido)methyl)phosphonate [Compound 128]										100 to 1000 nM	2.5 to 10 µM	2.5 to 10 µM	2.5 to 10 µM	2.5 to 10 µM	2500 to 10000 nM	2.5 to 10 µM			
